Assay results published in ChEMBL document CHEMBL4177629, “Synthesis, anticancer, structural, and computational docking studies of 3-benzylchroman-4-one derivatives” (Bioorg Med Chem Lett, 2017).

What was measured:
BT-549 = assay: Cytotoxicity against human BT549 cells assessed as reduction in cell viability after 24 hrs by MTT assay; assay type: functional, cell-based; details: BT-549, 24 h
HeLa = assay: Cytotoxicity against human HeLa cells assessed as reduction in cell viability after 24 hrs by MTT assay; assay type: functional, cell-based
Vero = assay: Cytotoxicity against African green monkey Vero cells assessed as reduction in cell viability after 24 hrs by MTT assay; assay type: cell-based; details: Chlorocebus sabaeus
Lu1 = assay: Cytotoxicity against human Lu1 cells by SRB assay; assay type: functional, cell-based
KB = assay: Cytotoxicity against human KB cells by SRB assay; assay type: functional, cell-based
SK-MEL-2 = assay: Cytotoxicity against human SK-MEL-2 cells by SRB assay; assay type: functional, cell-based
[1] = Inhibition of glutathione S-transferase (unknown origin); set-up: species or system Homo sapiens

For `O=C1c2ccccc2OCC1Cc1ccc(O)cc1` (stereo not given), the IC50 (BT-549) was 20.1 µM, the IC50 (HeLa) was 42.8 µM and the IC50 (Vero) was over 200 µM.

`COc1ccc(CC2COc3cc(C)ccc3C2=O)cc1` (stereo not given) gave an IC50 (BT-549) of 42.1 µM, an IC50 (HeLa) of 68.3 µM and an IC50 (Vero) of over 200 µM.

Molecule `COc1ccc2c(c1)OCC(Cc1ccc(O)cc1)C2=O` (stereo not given) has an IC50 (BT-549) of 24.3 µM, an IC50 (HeLa) of 50.4 µM and an IC50 (Vero) of over 200 µM.

Molecule `COc1ccc(CC2COc3ccccc3C2=O)cc1O` (stereo not given) has an IC50 (BT-549) of over 100 µM, an IC50 (HeLa) of 20.4 µM and an IC50 (Vero) of over 200 µM.

`O=C1c2ccccc2OCC1Cc1ccc(F)cc1` (stereo not given) showed an IC50 (BT-549) of over 200 µM, an IC50 (HeLa) of over 200 µM and an IC50 (Vero) of over 200 µM.

`COc1ccc(CC2COc3ccccc3C2=O)cc1` (stereo not given) showed an IC50 (BT-549) of over 100 µM, an IC50 (HeLa) of over 100 µM and an IC50 (Vero) of over 200 µM.

`COc1ccc(C[C@@H]2COc3cc(OC)c(C)c(O)c3C2=O)c(O)c1` gave an IC50 (Lu1) of 0.51 to 0.66 µM, an IC50 (KB) of 0.51 to 0.66 µM and an IC50 (SK-MEL-2) of 0.51 to 0.66 µM.

Work on `O=C1c2cc(O)ccc2OC[C@@H]1Cc1cc(O)cc(O)c1O` yielded an IC50 [1] of 16.5 µM.

For `COc1ccc(CC2COc3cccc(OC)c3C2=O)cc1O` (stereo not given), the IC50 (BT-549) was over 200 µM, the IC50 (HeLa) was over 200 µM and the IC50 (Vero) was over 200 µM.

With `COc1ccc(CC2COc3ccccc3C2=O)cc1OC` (stereo not given) the IC50 (BT-549) was over 100 µM, the IC50 (HeLa) was over 100 µM and the IC50 (Vero) was over 200 µM.

Molecule `COc1ccc2c(c1)C(=O)[C@@H](Cc1cc(O)cc(O)c1O)CO2` has an IC50 [1] of 17.1 µM.

In the case of `COc1ccc(CC2COc3ccccc3C2=O)c(OC)c1OC` (stereo not given), the IC50 (BT-549) is reported as over 100 µM, the IC50 (HeLa) is reported as over 100 µM and the IC50 (Vero) is reported as over 200 µM.

Work on `COc1ccc(CC2COc3ccccc3C2=O)c(OC)c1` (stereo not given) yielded an IC50 (BT-549) of 61.9 µM, an IC50 (HeLa) of 38.3 µM and an IC50 (Vero) of over 200 µM.

For `COc1ccc(CC2COc3ccc(C)cc3C2=O)cc1` (stereo not given), the IC50 (BT-549) was over 100 µM, the IC50 (HeLa) was 76.3 µM and the IC50 (Vero) was over 200 µM.

For `Cc1ccc(CC2COc3ccccc3C2=O)cc1` (stereo not given), the IC50 (BT-549) was 42.2 µM, the IC50 (HeLa) was 48.9 µM and the IC50 (Vero) was over 200 µM.

Work on `O=C1c2ccccc2OCC1Cc1ccc(Cl)cc1` (stereo not given) yielded an IC50 (BT-549) of 69.3 µM, an IC50 (HeLa) of 61.9 µM and an IC50 (Vero) of over 200 µM.

Work on `COc1ccc2c(c1)OCC(Cc1ccc(OC)c(O)c1)C2=O` (stereo not given) yielded an IC50 (BT-549) of 30.6 µM, an IC50 (HeLa) of 50.1 µM and an IC50 (Vero) of over 200 µM.

For `Cc1ccc2c(c1)OCC(Cc1ccc(O)cc1)C2=O` (stereo not given), the IC50 (BT-549) was 28.7 µM, the IC50 (HeLa) was 43 µM and the IC50 (Vero) was over 200 µM.
